From patent publication EP0354453A2, “Antimicrobial agent for animals” (priority 1988, dated 1990)

How the values were obtained:
[1] = test system: Escherichia coli S6W; test: in vitro antimicrobial activity (MIC), agar dilution, Part 2; type: cell-based; conditions: Escherichia coli, S6W, Escherichia coli S6W, Chicken; read-out: MIC
Protocol: (§1) Test microorganisms listed in Table 2 were cultured overnight in heart infusion nutrient broth (produced by Eiken Chemical Co., Ltd.). Culture broth containing about 10⁸/ml cells was diluted to a volume of 100 times. An aliquot (about 0.05 ml) of the diluted broth was inoculated onto a Mueller Hinton agar plate (produced by Eiken Chemical Co., Ltd.) to which Compound No. 1 was added in a prescribed concentration. […]
(§2) MIC of Compounds (1)-(8) against various pathogenic bacteria derived from animals was determined in the same manner as in Example 1.

[2] = test system: Salmonella typhimurium 103; test: as above; type: cell-based; conditions: Salmonella enterica; Salmonella typhimurium 103, Chicken; read-out: MIC
Protocol: as §1, §2

[3] = test system: Escherichia coli 881; test: as above; type: cell-based; conditions: Escherichia coli, 881, Escherichia coli 881, Pig; read-out: MIC
Protocol: as §1, §2

[4] = test system: Salmonella typhimurium 569; test: as above; type: cell-based; conditions: Salmonella enterica, TYPHIMURIUM, Salmonella typhimurium 569, Pig; read-out: MIC
Protocol: as §1, §2

[5] = test system: Escherichia coli 139; test: as above; type: cell-based; conditions: Escherichia coli 139, Cow; read-out: MIC
Protocol: as §1, §2

[6] = test system: Bordetella bronchiaseptica OKM-1; test: as above; type: cell-based; conditions: Bordetella, OKM1, Bordetella bronchiaseptica OKM-1, Pig; read-out: MIC
Protocol: as §1, §2

[7] = test system: Staphylococcus aureus Yamaguchi 6; test: as above; type: cell-based; conditions: Staphylococcus aureus Yamaguchi 6, Chicken; read-out: MIC
Protocol: as §1, §2

[8] = test system: Mycoplasma gallisepticum Strain T-7; test: in vitro antimicrobial activity (MIC) in Frey liquid medium; type: cell-based; conditions: Mycoplasmoides gallisepticum, Mycoplasma gallisepticum Strain T-7, from chicken, 37°C, 3-5 days
Protocol: (§3) Various test strains of Mycoplasma gallisepticum derived from chicken were cultured in a Frey liquid medium for Mycoplasma for 3 days. The culture broth containing about 10⁸/ml cells was diluted to a volume of 100 times. The diluted broth was inoculated into Frey liquid media for Mycoplasma to which the compounds of this invention were added at prescribed concentrations. The cells were incubated at 37°C for 3-5 days while daily observing the color of the media. Among the culture broths maintaining yellow color at the time when the control to which no test compound was added turned red, the concentration of the broth having the minimum concentration was taken as the MIC of the compound.

[9] = test system: Mycoplasma gallisepticum Strain T-2; test: as above; type: cell-based; conditions: Mycoplasmoides gallisepticum; Mycoplasma gallisepticum Strain T-2, from chicken; Frey liquid medium, 37°C, 3-5 days; read-out: MIC
Protocol: as §3

[10] = test system: Mycoplasma gallisepticum Strain 2012; test: as above; type: cell-based; conditions: Mycoplasmoides gallisepticum, STRAIN2012; Mycoplasma gallisepticum Strain 2012, from chicken; Frey liquid medium, 37°C, 3-5 days; read-out: MIC
Protocol: as §3

[11] = test system: Mycoplasma gallisepticum Strain DP-1047; test: as above; type: cell-based; conditions: Mycoplasmoides gallisepticum; Mycoplasma gallisepticum Strain DP-1047, from chicken; Frey liquid medium, 37°C, 3-5 days; read-out: MIC
Protocol: as §3

[12] = test system: Mycoplasma gallisepticum Strain 2004; test: as above; type: cell-based; conditions: Mycoplasmoides gallisepticum, STRAIN2004; Mycoplasma gallisepticum Strain 2004, from chicken; Frey liquid medium, 37°C, 3-5 days; read-out: MIC
Protocol: as §3

[13] = test system: Escherichia coli; test: Effect of oral administration on chicken inoculated with Escherichia coli; type: in vivo; conditions: for Chickens developing disease in air sac (naked eye observation) / No. of dead chickens: 5 tested chickens
Protocol: Escherichia coli cells collected from infected chicken were cultured overnight in a trypticase soy broth (BBL). 0.2 ml of this culture broth was injected into the trachea of chickens of average body weight of 80 g using a 1 ml disposable injection needle. Beginning 2 hours after the inoculation, feeds to which Compound (1) had been added in the amount of 50 ppm, 25 ppm, or 12.5 ppm were freely given to the chickens for 5 days. Following the administration of Compound (1) the chickens were given feed with no addition of drug for 5 days. The surviving chickens were sacrificed and dissected. After examination of the degree of disease in the air sac, Escherichia coli in the trachea, lung, and air sac were quantitatively determined. […]

[14] = test system: Mycoplasma gallisepticum; test: Effect of oral administration on chicken inoculated with Mycoplasma gallisepticum; type: in vivo; conditions: for Chickens developing disease in air sac (naked eye observation) / No. of dead chickens: 5 tested chickens
Protocol: Mycoplasma gallisepticum cells collected from chickens having respiratory Mycoplasma infection were cultured for 3 days in a Frey liquid media for Mycoplasma. 0.2 ml of this culture broth was injected into the trachea of chickens of an average body weight of 80 g using a 1 ml disposable injection needle. Beginning from the next day following the inoculation, feeds to which Compound (1) had been added in the amount of 100 ppm, 75 ppm, or 50 ppm were freely given to the chickens for 5 days. Following the administration of Compound (1) the chickens were given feed containing no drug for a further 5 days. The surviving chickens were sacrificed and dissected. After examination of the degree of disease in the air sac, Mycoplasma gallisepticum in the infraorbital sinus, trachea, lung, and air sac were determined. […] TABLE 6 […]

[15] = test system: pathogenic bacteria derived from animals; test: in vitro antimicrobial activity, Part 1, overall comparison; type: cell-based; conditions: summary of Table 2
Protocol: as §1

[16] = test system: Bordetella bronchiaseptica AR3; test: in vitro antimicrobial activity (MIC), agar dilution, Part 1; type: cell-based; conditions: Bordetella bronchiaseptica AR3, Pig; Mueller Hinton agar, 37°C, 18-24 hours
Protocol: as §1

[17] = test system: Salmonella typhimurium 101; test: as above; type: cell-based; conditions: Salmonella enterica; Salmonella typhimurium 101, Chicken; Mueller Hinton agar, 37°C, 18-24 hours
Protocol: as §1

[18] = test system: Escherichia coli 442; test: as above; type: cell-based; conditions: Escherichia coli 442, Chicken; Mueller Hinton agar, 37°C, 18-24 hours
Protocol: as §1

[19] = test system: Staphylococcus aureus Aichi 2; test: as above; type: cell-based; conditions: AICHI2; Staphylococcus aureus Aichi 2, Chicken; Mueller Hinton agar, 37°C, 18-24 hours
Protocol: as §1

[20] = test system: Escherichia coli 164; test: as above; type: cell-based; conditions: Escherichia coli 164, Pig; Mueller Hinton agar, 37°C, 18-24 hours
Protocol: as §1

[21] = test system: Salmonella typhimurium 595; test: as above; type: cell-based; conditions: Salmonella enterica; Salmonella typhimurium 595, Pig; Mueller Hinton agar, 37°C, 18-24 hours
Protocol: as §1

[22] = test system: Escherichia coli 15-4; test: as above; type: cell-based; conditions: 154; Escherichia coli 15-4, Cow; Mueller Hinton agar, 37°C, 18-24 hours
Protocol: as §1

C[C@H]1COc2c(N3CCN(C)CC3)c(F)cc3c(=O)c(C(=O)O)cn1c23 [Compound (1), 3S-9-fluoro-2,3-dihydro-3-methyl-10-(4-methyl-1-piperazinyl)-7-oxo-7H-pyrido[1,2,3-de] [1,4]benzoxazine-6-carboxylic acid hemihydrate]
MIC [1]: 0.025 µg/mL
MIC [2]: 0.05 µg/mL
MIC [3]: 0.05 µg/mL
MIC [4]: 0.05 µg/mL
MIC [5]: 0.05 µg/mL
MIC [6]: 0.2 µg/mL
MIC [7]: 0.05 µg/mL
MIC [8]: 0.05 µg/mL
MIC [9]: 0.05 µg/mL
MIC [10]: 0.025 µg/mL
MIC [11]: 0.025 µg/mL
MIC [12]: 0.0125 µg/mL
Escherichia coli collected in Air sac ([13]; 12.5 ppm in feed for 5 days): 3.99 Logarithmic number of collected cells per 1 g of tissue
Escherichia coli collected in Lung ([13]; 12.5 ppm in feed for 5 days): 2.78 Logarithmic number of collected cells per 1 g of tissue
Escherichia coli collected in Trachea ([13]; 12.5 ppm in feed for 5 days): 2.78 Logarithmic number of collected cells per 1 g of tissue
Chickens developing disease in air sac (naked eye observation) ([13]; 12.5 ppm in feed for 5 days): 3
No. of dead chickens ([13]; 12.5 ppm in feed for 5 days): 1
Escherichia coli collected in Air sac ([13]; 25 ppm in feed for 5 days): 0 Logarithmic number of collected cells per 1 g of tissue
Escherichia coli collected in Lung ([13]; 25 ppm in feed for 5 days): 0 Logarithmic number of collected cells per 1 g of tissue
Escherichia coli collected in Trachea ([13]; 25 ppm in feed for 5 days): 0 Logarithmic number of collected cells per 1 g of tissue
Chickens developing disease in air sac (naked eye observation) ([13]; 25 ppm in feed for 5 days): 1
No. of dead chickens ([13]; 25 ppm in feed for 5 days): 0
Escherichia coli collected in Air sac ([13]; 50 ppm in feed for 5 days): 0 Logarithmic number of collected cells per 1 g of tissue
Escherichia coli collected in Lung ([13]; 50 ppm in feed for 5 days): 0 Logarithmic number of collected cells per 1 g of tissue
Escherichia coli collected in Trachea ([13]; 50 ppm in feed for 5 days): 0 Logarithmic number of collected cells per 1 g of tissue
Chickens developing disease in air sac (naked eye observation) ([13]; 50 ppm in feed for 5 days): 0
No. of dead chickens ([13]; 50 ppm in feed for 5 days): 0
Mycoplasma gallisepticum collected in Air sac ([14]; 50 ppm in feed for 5 days): 2.32 Logarithmic number of collected cells per 1 g of tissue
Mycoplasma gallisepticum collected in Infraorbital sinus ([14]; 50 ppm in feed for 5 days): 0/5
Mycoplasma gallisepticum collected in Lung ([14]; 50 ppm in feed for 5 days): 0 Logarithmic number of collected cells per 1 g of tissue
Mycoplasma gallisepticum collected in Trachea ([14]; 50 ppm in feed for 5 days): 0 Logarithmic number of collected cells per 1 g of tissue
Chickens developing disease in air sac (naked eye observation) ([14]; 50 ppm in feed for 5 days): 0
No. of dead chickens ([14]; 50 ppm in feed for 5 days): 0
Mycoplasma gallisepticum collected in Air sac ([14]; 75 ppm in feed for 5 days): 0 Logarithmic number of collected cells per 1 g of tissue
Mycoplasma gallisepticum collected in Infraorbital sinus ([14]; 75 ppm in feed for 5 days): 0/5
Mycoplasma gallisepticum collected in Lung ([14]; 75 ppm in feed for 5 days): 0 Logarithmic number of collected cells per 1 g of tissue
Mycoplasma gallisepticum collected in Trachea ([14]; 75 ppm in feed for 5 days): 0 Logarithmic number of collected cells per 1 g of tissue
Chickens developing disease in air sac (naked eye observation) ([14]; 75 ppm in feed for 5 days): 0
No. of dead chickens ([14]; 75 ppm in feed for 5 days): 0
Mycoplasma gallisepticum collected in Air sac ([14]; 100 ppm in feed for 5 days): 0 Logarithmic number of collected cells per 1 g of tissue
Mycoplasma gallisepticum collected in Infraorbital sinus ([14]; 100 ppm in feed for 5 days): 0/5
Mycoplasma gallisepticum collected in Lung ([14]; 100 ppm in feed for 5 days): 0 Logarithmic number of collected cells per 1 g of tissue
Mycoplasma gallisepticum collected in Trachea ([14]; 100 ppm in feed for 5 days): 0 Logarithmic number of collected cells per 1 g of tissue
Chickens developing disease in air sac (naked eye observation) ([14]; 100 ppm in feed for 5 days): 0
No. of dead chickens ([14]; 100 ppm in feed for 5 days): 0
antimicrobial activities compared with Ofloxacin [15]: higher antimicrobial activities than its known racemic isomer (Ofloxacin)
MIC [16]: 0.2 µg/mL
MIC [17]: 0.025 µg/mL
MIC [18]: 0.025 µg/mL
MIC [19]: 0.1 µg/mL
MIC [20]: 0.05 µg/mL
MIC [21]: 0.05 µg/mL
MIC [22]: 0.05 µg/mL
